Experimental data from US5567704A, “R-enatiomerically pure hydroxylated xanthine compounds to treat baldness” (priority 1995, dated 1996).

Legend:
[1] = system: lysophosphatidic acid acyl transferase (LPAAT); test: in vitro inhibition of LPAAT in 3T3 Ras-transformed fibroblasts stimulated with IL-1β; type: cell-based; conditions: 3T3 Ras-transformed fibroblasts, IL-1β, FIG. 17
Method: FIG. 17 illustrates a comparison of CT1501R, its S isomer CT1501S, and PTX on in vitro inhibition of lysophosphatidic acid acyl transferase (LPAAT), an enzyme involved in second messenger signaling. […] LPAAT activity was determined in 3T3 Ras-transformed fibroblasts stimulated with IL-1β.
One in vitro assay measures inhibition of the relevant enzymes lysophosphatidic acid acyltransferase (LPAAT) and phosphatidic acid phosphoryl hydrolase (PAPH). The assay involves incubating of target cells with a primary stimulus (e.g., a variety of cytokines, growth factors, oncogene products, putative therapeutic agents, irradiation, viral infection, toxins, bacterial infection and the products thereof, and any stimulus which, if not counteracted, has a deleterious effect on the target cell) in the presence or absence of an inventive compound at varying dosage levels. Target cells include, for example, subcellular entities, such as, microsomes derived from mesenchymal and/or ectodermal cells, particularly microsomes from marrow stromal cells or human or rat mesangial cells; microsomes or synaptosomes derived from brain; plasma membrane-enriched microsomes, plasma membranes derived as described in Bursten et at. (J. Biol. Chem. 226:20732-20743, 1991 ), or detergent-solubilized microsomes; synaptosomes, and membranes or other cell preparations solubilized using, for example, NP-40, Miranal, SDS or other neutral detergents; and detergent-solubilized, recombinant, or further purified preparations of cell proteins, including the proteins LPAAT and/or PAPH. After incubation for short periods of time, cell lipids are extracted and assayed by […] according to standard procedures. Briefly, lipids are extracted using, for example, chloroform:methanol 2:1 (v/v), and the extracts are then subjected to HPLC as described in Bursten and Harris, Biochemistry 30:6195-6203, 1991. A Rainin® mu-Porasil column is used with a 3:4 hexane:propanol organic carrier and a 1-10% water gradient during the first 10 minutes of separation. Detection of the peaks in the elution pattern is by absorption in the range of ultraviolet which detects isolated double bonds. The relevant peaks of unsaturated PA and DAG are shown in the elution pattern. It is important to note that the assay method permits discrimination between various forms of PA and DAG so that those relevant to the pathway affected by the (R) or (S) compounds of the invention can be measured directly. Confirmation of the nature of the acyl substituents of these components is accomplished using fast-atom bombardment mass spectroscopy. Thus, the relevant unsaturated (non-arachidonic) PA and DAG subspecies may be detected. The time periods employed are 5-60 seconds after stimulation with the primary stimulus, such as a cytokine. This technique permits assessment of the levels of various lipid components as a function of time.

[2] = system: PBMC (peripheral blood mononuclear cells); test: two-way mixed lymphocyte reaction (MLR); type: cell-based, human; conditions: FIG. 1
Source text: Various in vitro assays can be used to measure effects of the inventive compounds to module immune activity and have antitumor activity using a variety of cellular types. For example, a mixed lymphocyte reaction (MLR) provides a valuable screening tool to determine biological activity of each inventive compound. In the MLR, PBMCs (peripheral blood mononuclear cells) are obtained by drawing whole blood from healthy volunteers in a heparinized container and diluted with an equal volume of hanks balanced salt solution (HBSS). This mixture is layered on a sucrose density gradient, such as a Ficoll-Hypaque® gradient (specific gravity 1.08), and centrifuged at 1000× g for 25 minutes at room temperature or cooler. PBMC are obtained from a band at a plasma-Ficoll interface, separated and washed at least twice in a saline solution, such as HBSS. Contaminating red cells are lysed, such as by ACK lysis for 10 min at 37° C., and the PBMCs are washed twice in HBSS. The pellet of purified PBMCs is resuspended in complete medium, such as RPMI 1640 plus 20% human inactivated serum. Proliferative response of PBMC to allogeneic stimulation is determined in a two-way MLR performed in a 96-well microtiter plate. […] At the conclusion of the incubation tritiated thymidine is added (for example, 1 μCi/well of 40 to 60 Ci/mmole) and proliferation determined by liquid scintillation counting. […]

smooth muscle cell = test: smooth muscle proliferation stimulated by PDGF and IL-1; type: cell-based; conditions: PDGF and IL-1; drug added two hours prior, FIG. 4
Source text: CT1501R and PTX were separately added to the cells two hours prior to activation with PDGF and IL-1.

stromelysin/PUMP-1 = test: PUMP-1 activity induced by IL-1; type: cell-based; conditions: induced by 100 U/ml of IL-1
Source text: Metalloproteases mediate tissue damage such as glomerular diseases of the kidney, joint destruction in arthritis, and lung destruction in emphysema, and play a role in tumor metastases. Three examples of metalloproteases include a 92 kD type V gelatinase induced by TNF, IL-1 and PDGF plus bFGF, a 72 kD type IV collagenase that is usually constitutive and induced by TNF or IL-1, and a stromelysin/PUMP-1 induced by TNF and IL-1. The inventive compounds can inhibit TNF or IL-1 induction of the 92 kD type V gelatinase inducable metalloprotease. Moreover, CT 1501R reduced PUMP- 1 activity induced by 100 U/ml of IL-1 to 15% of its control levels. […] Accordingly, the inventive compounds prevent induction of certain metalloproteases induced by IL-1 or TNF and are not involved with constitutively produced proteases (e.g., 72 kD type IV collagenase) involved in normal tissue remodeling.

[3] = metabolized in humans; cited from earlier work
nu/nu mice = test: nude mouse hair studies, topical application; type: in vivo; conditions: second experiment; topical twice daily, 34 days
Source text: This example illustrates nude mouse hair studies involving topical application of CT1501R. Six to eight week old, female, nu/nu mice from Charles River Laboratories were housed at Biosupport Research Support Services (Seattle, Wash.) in autoclaved micro isolator units with hyperchlorinated autoclaved water, irradiated rodent chow and kept under a laminar flow hood. Caging was changed weekly, and water was changed twice weekly. The mice were acclimated for 5 days before beginning each study.
The first topical formulation was prepared by adding CT1501R to a heated hydrophilic ointment (USP) at a 1% concentration, and allowed to solidify.
Nude mice were painted twice daily for 16 days with the first topical formulation of CT1501R on the left flank and another compound in the same base on the right flank with sterile applicators. Mice were handled under the laminar flow hood with applicator wearing face mask and sterile gloves. After 16 days, one mouse was sacrificed by cervical dislocation and skin biopsies were taken of the treated areas of the shoulder/flank and from the non-treated area of the dorsal pelvis (rump). Specimens were placed in 10% buffered formalin solution. Biopsies were sent to a veterinary dermopathologist for histopathology. Six weeks following treatment, a second mouse was euthanatized and biopsied the same as the first. Samples were sent for histopathology.
In a second experiment, topical application of CT1501R was performed along with a commercial topical minoxidil preparation (Rogaine®, Upjohn) that is approved for a hair growth indication. Five to six week old, female, nu/nu mice from Bantin and Kingman Universal were housed at Biosupport Research Support Services (Seattle, Wash.) in autoclaved micro isolator units with hyper chlorinated autoclaved water, irradiated rodent chow and kept under a laminar flow hood. Caging was changed weekly, and water was changed twice weekly. Mice were acclimated for 7 days before beginning study.
CT1501R, and two other compounds were prepared in a topical formulation of 60% ETOH, 10% water and 30% PEG along with vehicle only. Minoxidil was purchased as the commercial preparation Rogaine® from a local pharmacy. Rogaine® is sold in the same formulation base. Mice were identified by unique tail markings specific for each test article. Two mice per group were treated with CT1501R and another compound. One mouse was treated with each of vehicle and minoxidil. The mice were handled under the laminar flow hood with the applicator wearing face mask and sterile gloves. Each mouse was treated twice daily with a separate sterile applicator to avoid contamination of the solutions or the mice. All mice were applied a strip of appropriate test article along the center line of the back from the base of the skull to the base of the tail, approximately 1.5 cm wide. After 34 days all mice were euthanatized by overdose of halothane anesthesia. Skin biopsies were taken from each of the 7 mice over the nape of the neck between the scapulas (approximate size was 1×1.5 cm). All specimens were blotted on gauze to remove blood and fluids, affixed to a cut piece of wooden tongue depressor, and placed specimen side down in separately marked containers with 10% buffered formalin. Specimens were shipped to a veterinary dermatopathologist for qualitative histopathological determinations.

Structure (SMILES)	inhibition of LPAAT enzyme activity [1]	proliferative response of PBMC to allogeneic stimulation [2]	inhibition of smooth muscle cell proliferation (smooth muscle cell)	PUMP-1 activity, % of control levels (stromelysin/PUMP-1) [%]	metabolic conversion of PTX [3]	hair follicles, subjective histopathological examination (nu/nu mice)
C[C@H](O)CCCCn1c(=O)c2c(ncn2C)n(C)c1=O [CT1501S]	only CT1501R significantly inhibited enzyme activity	–	–	–	–	–
CC(=O)CCCCn1c(=O)c2c(ncn2C)n(C)c1=O [PTX, 1-(5-oxohexyl)-3,7-dimethylxanthine, reference compound]	only CT1501R significantly inhibited enzyme activity	showed dose-response activity	inhibited smooth muscle cell proliferation at the higher doses tested	95	converted almost exclusively to the S enantiomer of MI	–
Nc1cc(N2CCCCC2)nc(N)[n+]1[O-] [minoxidil, reference compound]	–	–	–	–	–	fair response to treatment
